Results taken from patent US8735406B2, “8-oxodihydropurine derivative” (Dainippon Sumitomo Pharma Co., Ltd., priority 2009, dated 2014).

Molecular target: T1, FAAH (Rattus norvegicus, UniProt P97612)
T1 construct: Preparation of Rat Brain Membranes Preparations (FAAH Enzyme Solution); from tissue; host or cells: rat cerebrum (brain membrane preparation)
T1 sequence (P97612 1-579): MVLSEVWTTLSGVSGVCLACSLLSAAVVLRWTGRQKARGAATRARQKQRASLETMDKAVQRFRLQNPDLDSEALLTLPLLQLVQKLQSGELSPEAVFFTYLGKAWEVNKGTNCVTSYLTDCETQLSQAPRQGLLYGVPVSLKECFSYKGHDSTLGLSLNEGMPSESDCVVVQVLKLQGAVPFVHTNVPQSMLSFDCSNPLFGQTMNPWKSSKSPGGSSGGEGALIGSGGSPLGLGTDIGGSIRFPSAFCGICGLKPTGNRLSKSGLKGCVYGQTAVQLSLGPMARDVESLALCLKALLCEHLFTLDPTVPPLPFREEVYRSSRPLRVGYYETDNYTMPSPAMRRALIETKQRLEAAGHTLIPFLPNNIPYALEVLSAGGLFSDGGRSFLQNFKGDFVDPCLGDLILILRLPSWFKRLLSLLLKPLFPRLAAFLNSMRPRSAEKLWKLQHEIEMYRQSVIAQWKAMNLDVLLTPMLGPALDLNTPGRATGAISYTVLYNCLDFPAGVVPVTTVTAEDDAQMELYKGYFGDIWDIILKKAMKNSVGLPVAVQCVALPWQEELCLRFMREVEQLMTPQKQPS
Assay: Determination of FAAH inhibitory activity in rat (rat brain membrane preparations, [3H]-anandamide hydrolysis)
Format: biochemical
Conditions: rat brain membrane preparations; for inhibition at 0.1 µM: 100 nM test substance, read-out: FAAH Inhibition, Inhibition Rate at 100 nM; for IC50: test substance 0.1 nM to 1 μM, read-out: FAAH Inhibition IC50
Summary of the method: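 Compounds tested from 0.1 nM to 1 μM to derive IC50 against FAAH hydrolysis in rat brain membrane preparations (100 μg/mL). A 10-min 37 °C preincubation was followed by 10 min with [3H]-anandamide (2 nM) mixed with 2 μM unlabelled anandamide. Radioactive ethanolamine was extracted into the water/methanol layer and counted.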

SMILES | inhibition at 0.1 µM [%] | IC50 [nM]
CC(=O)c1ccc(-c2ncc3c(n2)n(C)c(=O)n3C(=O)N2CCCC2)cc1 [compound 184] | 102 | 4
Cn1c(=O)n(C(=O)N2CCCC2)c2cnc(-c3ccc(C(C)(C)C)cc3)nc21 [compound 185] | 58 | 89
CC(=O)c1cccc(-c2ncc3c(n2)n(C)c(=O)n3C(=O)N2CCCC2)c1 [compound 186] | 102 | 7
Cn1c(=O)n(C(=O)N2CCCC2)c2cnc(-c3ccc(F)cc3F)nc21 [compound 188] | 99 | 9
Cn1c(=O)n(C(=O)N2CCCC2)c2cnc(-c3ccc(F)c(F)c3)nc21 [compound 190] | 100 | 6
COc1ccc(-c2ncc3c(n2)n(C)c(=O)n3C(=O)N2CCCC2)cc1F [compound 191] | 105 | 7
Cc1ccc(-c2ncc3c(n2)n(C)c(=O)n3C(=O)N2CCCC2)cc1F [compound 192] | 103 | 39
CCOc1cc(F)cc(-c2ncc3c(n2)n(C)c(=O)n3C(=O)N2CCCC2)c1 [compound 193] | 102 | 42
COc1ccc(F)cc1-c1ncc2c(n1)n(C)c(=O)n2C(=O)N1CCCC1 [compound 195] | 83 | 66
Cc1cc(C)cc(-c2ncc3c(n2)n(C)c(=O)n3C(=O)N2CCCC2)c1 [compound 197] | 69 | 70
Cn1c(=O)n(C(=O)N2CCCC2)c2cnc(-c3ccc(OC(F)(F)F)c(F)c3)nc21 [compound 198] | 92 | 46
Cn1c(=O)n(C(=O)N2CCCC2)c2cnc(-c3cc(C(F)(F)F)ccc3F)nc21 [compound 199] | 68 | 72
Cn1c(=O)n(C(=O)N2CCCC2)c2cnc(-c3cccc(OC(F)(F)F)c3)nc21 [compound 204] | 81 | 56
COc1cncc(-c2ncc3c(n2)n(C)c(=O)n3C(=O)N2CCCC2)c1 [compound 208] | 106 | 10
Cn1c(=O)n(C(=O)N2CCCC2)c2cnc(-c3cccnc3F)nc21 [compound 209] | 103 | 24
CCOc1ccc(-c2ncc3c(n2)n(C)c(=O)n3C(=O)N2CCCC2)cn1 [compound 210] | 103 | 8
Cn1c(=O)n(C(=O)N2CCCC2)c2cnc(-c3cncc(F)c3)nc21 [compound 211] | 101 | 8
Cc1cncc(-c2ncc3c(n2)n(C)c(=O)n3C(=O)N2CCCC2)c1 [compound 212] | 88 | 54
Cn1c(=O)n(C(=O)N2CCCC2)c2nc(-c3ccccc3F)ncc21 [compound 225] | 57 | 89
COc1ccc(/C=C/c2ncc3c(n2)n(C(=O)N2CCCC2)c(=O)n3C)cc1 [compound 242] | 40 | > 100
Cc1ccc(Cc2ncc3c(n2)n(C)c(=O)n3C(=O)N2CCCC2)cc1 [compound 259] | 95 | 41
COc1ccccc1Cc1ncc2c(n1)n(C)c(=O)n2C(=O)N1CCCC1 [compound 260] | 84 | 58
CCOc1ccc(Cc2ncc3c(n2)n(C)c(=O)n3C(=O)N2CCCC2)cc1 [compound 263] | 75 | 68
Cn1c(=O)n(C(=O)N2CCCC2)c2cnc(Cc3ccc(C#N)cc3)nc21 [compound 264] | 91 | 54
Cn1c(=O)n(C(=O)N2CCCC2)c2cnc(Cc3ccc(F)c(F)c3)nc21 [compound 269] | 96 | 42

Next, values leading:

inhibition at 0.1 µM [%] | IC50 [nM] | SMILES
39 | > 100 | COc1cc(Cc2ncc3c(n2)n(C)c(=O)n3C(=O)N2CCCC2)cc(OC)c1 [compound 271]
35 | > 100 | Cn1c(=O)n(C(=O)N2CCCC2)c2cnc(Cc3cccc(-c4ccccc4)c3)nc21 [compound 272]
59 | 74 | CCN(C)C(=O)n1c(=O)n(C)c2nc(Cc3ccc(C(F)(F)F)cc3)ncc21 [compound 283]
66 | 77 | Cn1c(=O)n(C(=O)N2CCCC2)c2nc(Cc3ccccc3)ncc21 [compound 285]
58 | 75 | COc1ccccc1Cc1ncc2c(n1)n(C(=O)N1CCCC1)c(=O)n2C [compound 291]
90 | 27 | CN(C)C(=O)n1c(=O)n(C)c2cnc(-c3ccc(OC(F)(F)F)cc3)nc21 [compound 318]
95 | 18 | CN(C)C(=O)n1c(=O)n(C)c2cnc(-c3cccc(OC(F)(F)F)c3)nc21 [compound 319]
45 | 113 | CCOc1ccc(-c2ncc3c(n2)n(C(=O)N(C)C)c(=O)n3C)cc1 [compound 320]
54 |  | CCOc1cccc(-c2ncc3c(n2)n(C(=O)N(C)C)c(=O)n3C)c1 [compound 321]
57 | 77 | CN(C)C(=O)n1c(=O)n(C)c2cnc(-c3cccc(F)c3)nc21 [compound 323]
55 | 82 | Cc1cccc(-c2ncc3c(n2)n(C(=O)N(C)C)c(=O)n3C)c1 [compound 324]
101 | 11 | CN(C)C(=O)n1c(=O)n(C)c2cnc(-c3cccc(C(F)(F)F)c3)nc21 [compound 325]
23 | 109 | CN(C)C(=O)n1c(=O)n(C)c2cnc(-c3cccc(OCc4ccccc4)c3)nc21 [compound 327]
118 | 5 | CN(C)C(=O)n1c(=O)n(C)c2cnc(-c3cccc(Cl)c3)nc21 [compound 328]
95 | 12 | CN(C)C(=O)n1c(=O)n(C)c2cnc(-c3ccc(Cl)cc3)nc21 [compound 329]
71 | 50 | CCN(C)C(=O)n1c(=O)n(C)c2cnc(-c3cccc(C)c3)nc21 [compound 340]
102 | < 1 | CCN(C)C(=O)n1c(=O)n(C)c2cnc(-c3cccc(OC(F)(F)F)c3)nc21 [compound 341]
76 | 52 | CCN(C)C(=O)n1c(=O)n(C)c2cnc(-c3cccc(Cl)c3)nc21 [compound 342]
95 | 14 | CCN(C)C(=O)n1c(=O)n(C)c2cnc(-c3cccc(OC(F)F)c3)nc21 [compound 343]
93 | 13 | CCN(C)C(=O)n1c(=O)n(C)c2cnc(-c3cccc(C(F)F)c3)nc21 [compound 344]
101 | 9 | CCN(C)C(=O)n1c(=O)n(C)c2cnc(-c3ccc(OC(F)F)cc3)nc21 [compound 345]
99 | 21 | CCOc1cccc(-c2ncc3c(n2)n(C(=O)N2CCC2)c(=O)n3C)c1 [compound 346]
72 | 61 | CCOc1ccc(-c2ncc3c(n2)n(C(=O)N2CCC2)c(=O)n3C)cc1 [compound 347]
90 | 28 | CCCCOc1cccc(-c2ncc3c(n2)n(C(=O)N2CCC2)c(=O)n3C)c1 [compound 348]
